The subject of the assay is Nox1. The assay is described as follows: Nox1 expression (RT-PCR, immunoblot) in N27 cells exposed to toxins. The class given is cell-based, rat. To be noted: N27 cells. The text has this: The NADPH oxidase is a multi-subunit enzyme that consists of the catalytic subunits (Nox isoforms) together with the regulatory subunits including p22phox, p47phox, p40phox, p67phox, Nox organizer 1 (Noxo1), Nox activator 1 (Noxa1), and small GTPase Rac1. In order to test whether dopaminergic (DA) cells are equipped with the NOX components, N27, a well-established rat DA cell line was examined (Prasad et al. 1994). The mRNAs encoding each Nox isoform and regulatory subunits were detected using RT-PCR. Since transcriptional induction of Nox1 and Nox4 has already been reported in several tissues under a variety of stimuli, transcripts were determined in both nontreated and 6-hydroxydopamine (6-OHDA), a DA neurodegenerative compound, treated DA cells. ROS generation as induced by 6-OHDA (100 μM) and subsequent cell death was observed. All Nox isoforms (Nox1, Nox2, Nox4, Duox1 and Duox2) except Nox3 and Nox5 were detected (FIG. 1A). […] Mitochondria, which have long been considered as a major source of ROS, play a key role in Nox1-mediated superoxide generation (Desouki et al. 2005). […] Cytoplasmic regulatory subunits including p47phox, Noxa1, and Noxo1 were constitutively expressed in DA cells as well (FIG. 1A). Noxa1 and Noxo1 are homologues of p67phox and p47phox, respectively. They are involved in Nox1-mediated superoxide generation (Banfi et al. 2003, Geiszt et al. 2003). […] The activation of a small GTPase Rac1 is indispensable for Nox1 and Nox2 activation (Bokoch 2002). GTP-bound active Rac1 was measured in DA cells treated with 6-OHDA for various duration from 1 h to 6 h.
Total RNA was extracted from N27 cells using Trizol reagent (Invitrogen, Carlsbad, Calif.). Reverse transcription was performed for 1 h at 42° C. with 1 μg of total RNA using 20 unit/μl of AMV reverse transcriptase (Roche Applied Science, Indianapolis, Ind.), and oligo-p(dT)15 as a primer. The samples were then heated at 99° C. for 5 min to terminate the reaction. The cDNA obtained from 1 μg total RNA was used as a template for PCR amplification. Oligonucleotide primers were designed based on Genebank entries for rat NOX1 (sense, 5′-[…]-3′ SEQ ID NO. 1; antisense, 5′-[…]-3′ SEQ ID NO. 2), rat NOX2 (sense, 5′-[…]-3′ SEQ ID NO. 3; antisense, 5′-[…]-3′ SEQ ID NO. 4), rat NOX4 (sense, 5′-[…]-3′ SEQ ID NO. 5; antisense, 5′-[…]-3′ SEQ ID NO. 6), rat NOXA1 (sense, 5′-[…]-3′ SEQ ID NO. 7; antisense, 5′-[…]-3′ SEQ ID NO. 8), rat NOXO1 (sense, 5′-[…]-3′ SEQ ID NO. 9; antisense, 5′-[…]-3′ SEQ ID NO. 10), rat p47 (sense, 5′-[…]-3′ SEQ ID NO 11; antisense, 5′-[…]-3′ SEQ ID NO. 12), rat Duox1 (sense, 5′-[…]-3′ SEQ ID NO. 13; antisense, 5′-[…]-3′SEQ ID NO. 14), rat Duox2 (sense, 5′-[…]-3′ SEQ ID NO. 15; antisense, 5′-[…]-3′ SEQ ID NO. 16) and rat GAPDH (sense, 5′-[…]-3′ SEQ ID NO. 17; antisense, 5′-[…]-3′ SEQ ID NO. 18). PCR mixes contained 10 μl of 2×PCR buffer, 1.25 mM of each dNTP, 10 pmol of each forward and reverse primer, and 2.5 units of Taq polymerase in the final volume of 20 μl. Amplification was performed in 35 cycles at 60° C., 30 sec; 72° C., 1 min; 94° C., 30 sec. After the last cycle, all samples were incubated for an additional 10 min at 72° C. for final extension step. PCR fragments were analyzed on 1.2% agarose gel in 0.5×TAE containing ethidium bromide. Amplification of GAPDH, a relatively invariant internal reference RNA, was performed in parallel, and cDNA amounts were normalized against GAPDH mRNA levels. The primer set specifically recognized only the gene of interest as indicated by amplification of a single band of expected size. […]

In the case of `NCCc1cc(O)c(O)cc1O` [6-OHDA, 6-hydroxydopamine], for the setting “100 μM, 6 h”, the “Nox1 mRNA (RT-PCR)” value is reported as “robustly induced”. Besides, the “Nox1 expression (immunoblot)” value (24 h) is “induced Nox1 expression in a dose-dependent manner”.

The values are drawn from patent publication US9394544B2, “Ameliorating oxidative stress in neurodegenerative disease via Nox1 targeting” (University of Central Florida Research Foundation, Inc., priority 2013, dated 2016).
